“And” between values parts separate entries of the source, which are not always exact repeats. Equal entries are not always repeated.
The molecules below were run on mouse norovirus (assay: Mouse Norovirus (MNV) assay in RAW cells). Details: murine norovirus, Table 7.

| SMILES | EC50 [µM] |
| --- | --- |
| Cc1nc(N)c2c(C(N)=O)cn([C@@H]3O[C@H](COC(=O)[C@@H](N)C(C)C)[C@@H](O)[C@H]3O)c2n1 [Compound 2] | 1.9 to 4.15 |
| Cc1nc(N)c2c(C(N)=O)cn([C@@H]3O[C@H](COC(=O)[C@H](C)N)[C@@H](O)[C@H]3O)c2n1 [Compound 3] | 2 |
| CCCCCCCCCCCCCCCCOCCC(=O)OC[C@H]1O[C@@H](n2cc(C(N)=O)c3c(N)nc(C)nc32)[C@H](O)[C@@H]1O [Compound 4] | 3.5 |
| Cc1nc(N)c2c(C(N)=O)cn([C@@H]3O[C@H](COC(=O)[C@@H](N)Cc4ccccc4)[C@@H](O)[C@H]3O)c2n1 [Compound 5] | 2.2 |
| [2H][C@@]1(n2cc(C(N)=O)c3c(N)nc(C)nc32)O[C@H](CO)[C@@H](O)[C@H]1O [Compound 6] | 3.08 |

Same assay, conditions: murine norovirus, Table 8; N/A = assayed but no EC50 value could be measured

| SMILES | EC50 |
| --- | --- |
| Cc1nc(O)c2c(C(N)=O)cn([C@@H]3O[C@H](CO)[C@@H](O)[C@H]3O)c2n1 [Compound 7] | 53.8 µM and 38.4 µM |
| Cc1nc(N)c2c(C(N)=O)cn([C@@H]3O[C@H](CO)[C@@H](O)[C@H]3O)c2[n+]1[O-] [Compound 8] | 23.6 µM |
| Cc1nc(N)c2c(C(N)=O)cn([C@@H]3O[C@H](CO)[C@@H](O)[C@@H]3O)c2n1 [Compound 9] | 50 µM |
| Cc1nc(N)c2c(-c3nn[nH]n3)cn([C@@H]3O[C@H](CO)[C@@H](O)[C@H]3O)c2n1 [Compound 10] | 61.5 µM |
| Cc1nc(N)c2c(C#N)cn([C@@H]3O[C@H](CO)[C@@H](O)[C@H]3O)c2n1 [Compound 11] | > 121 µM |
| CCc1nc(N)c2c(C(N)=O)cn([C@@H]3O[C@H](CO)[C@@H](O)[C@H]3O)c2n1 [Compound 13] | > 200 µM |
| Cc1nc(N)c2c(I)cn([C@@H]3O[C@H](CO)[C@@H](O)[C@H]3O)c2n1 [Compound 14] | > 100 µM |
| NC(=O)c1cn([C@@H]2O[C@H](CO)[C@@H](O)[C@H]2O)c2nc(-c3ccccc3)nc(N)c12 [Compound 15] | > 100 µM |
| NC(=S)c1cn([C@@H]2O[C@H](CO)[C@@H](O)[C@H]2O)c2nc(-c3ccccc3)nc(N)c12 [Compound 16] | > 100 µM |
| N#Cc1cn([C@@H]2O[C@H](CO)[C@@H](O)[C@H]2O)c2nc(-c3ccccc3)nc(N)c12 [Compound 17] | > 100 µM |
| Cc1nc(N)c2c(C(N)=O)cn([C@@H]3O[C@H](COCc4ccccc4)[C@@H](O)[C@H]3O)c2n1 [Compound 19] | > 100 µM |
| Cc1nc(N)c2c(C(N)=O)cn([C@@H]3O[C@H](CO)[C@H]4OC(C)(C)O[C@H]43)c2n1 [Compound 20] | > 20 µM |
| CCOP(=O)(COC[C@H]1O[C@@H](n2cc(C(N)=O)c3c(N)nc(C)nc32)[C@@H]2OC(C)(C)O[C@@H]21)OCC [Compound 21] | > 100 µM |
| CCCCCCCCCCCCCCCOCCCOP(=O)(O)COC[C@H]1O[C@@H](n2cc(C(N)=O)c3c(N)nc(C)nc32)[C@@H]2OC(C)(C)O[C@@H]21 [Compound 22] | > 100 µM |
| Cc1nc(N)c2c(C(N)=O)cn([C@@H]3O[C@H](COCP(=O)(O)O)[C@@H](O)[C@H]3O)c2n1 [Compound 23] | > 100 µM |
| CCCCCCCCCCCCCCCCOCCCOP(=O)(O)COC[C@H]1O[C@@H](n2cc(C(N)=O)c3c(N)nc(C)nc32)[C@H](O)[C@@H]1O [Compound 24] | > 20 µM |
| CCOP(=O)(COC[C@H]1O[C@@H](n2cc(C(N)=O)c3c(N)nc(C)nc32)[C@H](O)[C@@H]1O)OCC [Compound 25] | > 100 µM |
| NC(=O)c1cn([C@@H]2O[C@H](CO)[C@@H](O)[C@H]2O)c2nc(C(F)(F)F)nc(N)c12 [Compound 26] | > 100 µM |
| Cc1nc(Cl)c2c(C#N)cn([C@@H]3O[C@H](CO)[C@@H](O)[C@H]3O)c2n1 [Compound 29] | > 100 µM |
| COc1nc(C)nc2c1c(C#N)cn2[C@@H]1O[C@H](CO)[C@@H](O)[C@H]1O [Compound 30] | > 100 µM |
| Cc1nc(O)c2c(C#N)cn([C@@H]3O[C@H](CO)[C@@H](O)[C@H]3O)c2n1 [Compound 31] | > 100 µM |
| Cc1nc(N)c2c(C(N)=O)c[nH]c2n1 [Compound 32] | > 100 µM |
| Cc1nc(N)c2c(C(=O)O)cn([C@@H]3O[C@H](COCc4ccccc4)[C@@H](O)[C@H]3O)c2n1 [Compound 33] | > 100 µM |
| Cc1ncc2c(C(=O)O)cn([C@@H]3O[C@H](CO)[C@@H](O)[C@H]3O)c2n1 [Compound 34] | > 100 µM |

| SMILES | EC50 |
| --- | --- |
| Cc1ncc2c(C(N)=O)cn([C@@H]3O[C@H](CO)[C@@H](O)[C@H]3O)c2n1 [Compound 35] | > 100 µM |
| CNc1nc(C)nc2c1c(C(N)=O)cn2[C@@H]1O[C@H](CO)[C@@H](O)[C@H]1O [Compound 36] | > 100 µM |
| Cc1nc(N(C)C)c2c(C(N)=O)cn([C@@H]3O[C@H](CO)[C@@H](O)[C@H]3O)c2n1 [Compound 37] | > 100 µM |
| Cc1nc(N)c2c(C(N)=O)cn([C@@H]3O[C@H](CO)[C@@H](O)[C@H]3O)c2n1 [Compound 38] | > 100 µM |
| CNC(=O)c1cn([C@@H]2O[C@H](CO)[C@@H](O)[C@H]2O)c2nc(C)nc(N)c12 [Compound 39] | > 100 µM |
| Cc1nc(N)c2c(C(N)=O)cn([C@@H]3O[C@H](CO)[C@@H](O)C3(F)F)c2n1 [Compound 40] | > 100 µM |
| Cc1nc(N)c2c(C(=O)N(C)C)cn([C@@H]3O[C@H](CO)[C@@H](O)[C@H]3O)c2n1 [Compound 41] | > 100 µM |
| COc1nc(C)nc2c1c(I)cn2[C@@H]1O[C@H](CO)[C@@H](O)[C@H]1O [Compound 42] | > 100 µM |
| CSc1nc(C)nc2c1c(I)cn2[C@@H]1O[C@H](CO)[C@@H](O)[C@H]1O [Compound 43] | > 100 µM |
| Cc1nc(N)c2c(C(N)=O)c(Br)n([C@@H]3O[C@H](CO)[C@@H](O)[C@H]3O)c2n1 [Compound 44] | > 100 µM |
| COC(=O)c1c[nH]c2nc(C)nc(Cl)c12 [Compound 45] | > 100 µM |
| Cc1nc(N)c2cc[nH]c2n1 [Compound 46] | > 100 µM |
| COc1nc(C)nc2c1c(CN)cn2[C@@H]1O[C@H](CO)[C@@H](O)[C@H]1O [Compound 47] | > 100 µM |
| Cc1nc(N)c2ccn([C@@H]3O[C@H](CO)[C@@H](O)[C@H]3O)c2n1 [Compound 48] | > 100 µM |
| Cc1nc(N)c2c(C(N)=O)cn(C[C@H](O)CO)c2n1 [Compound 50] | > 100 µM |
| Cc1nc(N)c2c(C(N)=O)cn(C[C@H](C)O)c2n1 [Compound 51] | > 100 µM |
| Cc1nc(N)c2c(C(N)=O)cn(C[C@@H](CO)OCP(=O)(O)O)c2n1 [Compound 52] | > 100 µM |
| CCOP(=O)(CO[C@H](CO)Cn1cc(C(N)=O)c2c(N)nc(C)nc21)OCC [Compound 53] | > 100 µM |
| Cc1nc(N)c2ccn(C[C@H](C)O)c2n1 [Compound 54] | > 100 µM |
| CCCCCCCCCCCCCCCCOCCCOP(=O)(O)CO[C@H](CO)Cn1cc(C(N)=O)c2c(N)nc(C)nc21 [Compound 56] | 75.3 µM |
| Cc1nc(N)c2c(C(N)=O)cn([C@@H]3O[C@H](CO)[C@@H](O)[C@H]3N=[N+]=[N-])c2n1 [Compound 57] | > 100 µM |
| CCOP(=O)(CO[C@H](C)Cn1cc(C(N)=O)c2c(N)nc(C)nc21)OCC [Compound 58] | > 100 µM |
| Cc1nc(N)c2c(C(N)=O)cn(C[C@@H](C)OCP(=O)(O)O)c2n1 [Compound 59] | > 100 µM |
| COc1nc(C)nc2c1c(C(N)=O)cn2[C@@H]1O[C@H](COC(=O)[C@@H](NC(=O)OC(C)(C)C)C(C)C)[C@@H](O)[C@@]1(C)O [Compound 61] | > 100 µM |

Same assay, conditions: murine norovirus, Table 8; N/A = assayed but no EC50 value could be measured; listed as compound 7

| SMILES | EC50 [µM] |
| --- | --- |
| Cc1nc(O)c2c(C(N)=O)cn([C@@H]3O[C@H](CO)[C@@H](O)[C@H]3O)c2n1 [Compound 7] | > 38 |

Source: US9708359B2, “Pyrrolopyrimidine nucleosides and analogs thereof” (Chimerix, Inc., priority 2015, dated 2017)
